Measured values published in patent US11078182B2, “Heteroaromatic compounds as Vanin inhibitors” (Boehringer Ingelheim International GmbH, priority 2018, dated 2021).

Key:
[1] = target: FLAG-tagged Vanin-1 (AA 22-493, T26I) (Homo sapiens (Human), UniProt O95497, T26I); assay: Vanin-1 enzymatic assay; assay type: biochemical; conditions: 0.1 nM Vanin-1, 3 μM D-pantethine, pantothenic acid formation by RapidFire MS; geometric mean if multiple measurements; read-out: VNN 1 IC50
Experimental: The test compounds are dissolved in 100% DMSO at a concentration of 10 mM and in a first step diluted in DMSO to a concentration of 5 mM, followed by serial dilution steps in 100% DMSO. Dilution factor and number of dilution steps may vary according to needs. Typically 8 different concentrations by 1:5 dilutions are prepared, a further intermediate dilutions of the substances is carried out with assay buffer resulting in 1% final DMSO concentration in the assay.
0.1 nM of FLAG-tagged Vanin-1 (AA 22-493, T26I, produced internally) and test compounds are incubated at room temperature for 20 minutes in assay buffer (1 mM DTT, 0.0025% Brij-35, 50 mM HEPES, pH7.5). D-Pantethine (Sigma, Cat #P2125-5G) in assay buffer is added (final concentration 3 μM) and incubated for additional 30 minutes at room temperature. Total assay volume typically is 40 μl but might be adjusted according to needs. Reaction is stopped by adding equal volume of stop solution as the reaction mixture to reach 100 nM HD-pantothenic acid (as an internal standard) and 1% TFA. Assay plates are centrifuged for 2 minutes and the formation of pantothenic acid is detected by RapidFire Mass Spectrometry (mobile phase A: 0.1% formic acid and 0.01% trifluoroacetic acid in water; mobile phase B: 47.5% acetonitrile, 47.5% methanol, 0.1% formic acid and 0.01% trifluoroacetic acid in water) using a C18, 12 μL cartridge (Agilent Cat #G9205A).
The values given in Table I result from measurements of one or more samples. In case of multiple measurements the geometric mean values are given.

Pantetheinase (vanin) = assay: Human Whole Blood assay; assay type: cell-based; conditions: pantethine substrate, pantothenic acid formation by RapidFire MS, read-out: HWB IC50
Experimental: Pantetheinase (vanin) converts panteheine into pantothenic acid and cysteamine. Accordingly, in the described protocol vanin activity is quantified by formation of pantothenic acid after pantetheine supplementation via pantethine. The assay is applicable to identify vanin inhibitors. Compound stocks are dissolved in DMSO at 10 mM. Further dilutions are performed in RPMI 1640 medium (Gibco, #A-10491-01) and final concentrations in the assay are 0.032 nM-500 nM.
Human blood is drawn into a blood bag (1% heparin, 50 I.E./mL). Blood is aliquoted into cavities of 96-deep-well plates at 290 μL and mixed with 10 μL compound solution or vehicle (30 sec at 1400 rpm on a shaker). Equilibration follows at room temperature, 250 rpm and for 30 min. The assay is starts by adding 10 μL of substrate solution (20 μM pantethine in 1 mM DTT, 0.0025% Brij-35, 50 mM HEPES, pH7.5) to each well, except for some blank wells which receive […] substrate buffer (1 mM DTT, 0.0025% Brij-35, 50 mM HEPES, pH7.5) only. Samples are thoroughly shaken (30 sec, 1400 rpm) and reaction is allowed to take place at room temperature, 250 rpm and for 5 min. The reaction is stopped by addition of a vanin tool inhibitor in excess (BI-1 total conc. 10 μM). Centrifugation of the plate follows at 4° C., 665 G for 10 min. Then the blood plasma samples (100 μL) are transferred into another 96-deep-well plate and proteins are precipitated (5 min on ice) by adding 100 μL of ice cold precipitation solution (1 μM labelled pantothenic acid (di-β-alanine-13C6,15N2 calcium salt, Sigma, #705837) in acetonitrile). Afterwards the plate is centrifuged (4° C., 3220 G, 10 min) and supernatants (50 μL) are collected into another 96-deep-well plate and mixed (10 sec, 1400 rpm) with 150 μL ice cold formic acid (0.1%, Carl Roth GmbH+Co.KG, #CP03.1). The formation of pantothenic acid is detected by RapidFire Mass Spectrometry. A TripleQuad 6500+ (ABSciex, Germany) is equipped with an LC-1290 system, a RapidFire autosampler (Agilent, Germany) and a C18 cartridge Type C 12 μL (Agilent Cat #G9526-80000). Mobile phase A is consisting of 0.09% formic acid and 0.01% trifluoroacetic acid in water and mobile phase B of 0.09% formic acid and 0.01% trifluoroacetic acid in acetonitrile/methanol/water=47.5/47.5/5.

FLAG-tagged Vanin-1 (AA 22-493, T26I), sequence (O95497 22-493 T26I): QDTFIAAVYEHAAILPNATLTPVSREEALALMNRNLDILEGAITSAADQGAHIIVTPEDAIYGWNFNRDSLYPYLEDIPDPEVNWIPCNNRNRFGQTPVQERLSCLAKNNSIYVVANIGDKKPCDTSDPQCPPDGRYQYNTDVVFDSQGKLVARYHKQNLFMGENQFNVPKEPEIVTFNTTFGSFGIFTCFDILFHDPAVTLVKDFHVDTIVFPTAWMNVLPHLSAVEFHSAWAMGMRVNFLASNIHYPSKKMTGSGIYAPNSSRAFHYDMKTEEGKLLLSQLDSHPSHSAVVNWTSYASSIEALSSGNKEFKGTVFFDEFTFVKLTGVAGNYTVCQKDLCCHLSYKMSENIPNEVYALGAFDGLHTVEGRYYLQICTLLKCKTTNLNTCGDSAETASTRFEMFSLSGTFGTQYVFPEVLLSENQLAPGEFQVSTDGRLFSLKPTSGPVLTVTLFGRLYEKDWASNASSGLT

| SMILES | IC50 [1] [nM] | IC50 (Pantetheinase (vanin)) [nM] |
| --- | --- | --- |
| CN(C(=O)C1CCC1)[C@H]1CCN(C(=O)c2ccc(NC(C)(C)C)nc2)C1 [Example 1.1, N-[(3S)-1-[6-(tert-Butylamino)pyridine-3-carbonyl]pyrrolidin-3-yl]-N-methylcyclobutanecarboxamide] | 0.2 | 4.3 |
| CN(C(=O)C1CC(F)(F)C1)[C@H]1CCN(C(=O)c2ccc(NC(C)(C)C)nc2)C1 [Example 1.2] | 0.2 | 3.6 |
| CN(C(=O)[C@@H]1CCCO1)[C@H]1CCN(C(=O)c2ccc(NC(C)(C)C)nc2)C1 [Example 1.3] | 0.3 | 2.7 |
| CN(C(=O)c1ccc(Cl)s1)[C@H]1CCN(C(=O)c2ccc(NC(C)(C)C)nc2)C1 [Example 1.4] | 0.3 | 25.2 |
| CN(C(=O)C1CC1)[C@H]1CCN(C(=O)c2ccc(NC(C)(C)C)nc2)C1 [Example 1.5] | 0.3 | 4.2 |
| CC(C)(C)Nc1ccc(C(=O)N2CC[C@H](N3CCOC3=O)C2)cn1 [Example 1.6] | 0.3 | 4 |
| CN(C(=O)c1cc(C(F)(F)F)nn1C)[C@H]1CCN(C(=O)c2ccc(NC(C)(C)C)nc2)C1 [Example 1.7] | 0.3 | 5 |
| CN(C(=O)C1(C#N)CC1)[C@H]1CCN(C(=O)c2ccc(NC(C)(C)C)nc2)C1 [Example 1.8] | 0.3 | 5.8 |
| CC(C)(C)Nc1ccc(C(=O)N2CC[C@H](N3CCCC3=O)C2)cn1 [Example 1.9] | 0.4 | 3.1 |
| CN(C(=O)C1CCOC1)[C@H]1CCN(C(=O)c2ccc(NC(C)(C)C)nc2)C1 (some centres unmarked) [Example 1.10] | 0.4 |  |
| CN(C(=O)c1ccc(F)cc1)[C@H]1CCN(C(=O)c2ccc(NC(C)(C)C)nc2)C1 [Example 1.11] | 0.4 | 7.5 |
| Cc1cc(C(=O)N(C)[C@H]2CCN(C(=O)c3ccc(NC(C)(C)C)nc3)C2)[nH]n1 [Example 1.12] | 0.4 | 9.7 |
| CN(c1ncccn1)[C@H]1CCN(C(=O)c2ccc(NC(C)(C)C)nc2)C1 [Example 1.13] | 0.4 | 12.6 |
| CC(C)(C)Nc1ccc(C(=O)N2CC[C@H](N3CCCCC3=O)C2)cn1 [Example 1.14] | 0.8 | 12.5 |
| CN(C(=O)[C@H]1CCCO1)[C@H]1CCN(C(=O)c2ccc(NC(C)(C)C)nc2)C1 [Example 1.15] | 1 |  |
| CN(C(=O)CN1CCOCC1)[C@H]1CCN(C(=O)c2ccc(NC(C)(C)C)nc2)C1 [Example 1.16] | 1.3 |  |
| CN(C(=O)C1CC1)[C@H]1CCN(C(=O)c2ccc(NC3(C)CCC3)nc2)C1 [Example 2.1, N-Methyl-N-[(3S)-1-{6-[(1-methylcyclobutyl)amino]pyridine-3-carbonyl}pyrrolidin-3-yl]cyclopropanecarboxamide] | 0.3 | 4.6 |
| CC(=O)N(C)[C@H]1CCN(C(=O)c2ccc(NC(C)(C)C(C)C)nc2)C1 [Example 2.2] | 0.4 | 7.7 |

The next lines start with the values.

| IC50 [1] [nM] | IC50 (Pantetheinase (vanin)) [nM] | SMILES |
| --- | --- | --- |
| 0.3 | 3.9 | CC1(C#N)CCN(C(=O)c2ccc(NC(C)(C)C)nc2)C1 (single isomer, unassigned) [Example 7, 1-[6-(tert-Butylamino)pyridine-3-carbonyl]-3-methylpyrrolidine-3-carbonitrile] |
| 0.7 |  | CN(C(=O)C1CC1)[C@H]1CCN(C(=O)c2ccc(NC3(C)CCCC3)nc2)C1 [Example 2.3] |
| 1.7 |  | CC1(Nc2ccc(C(=O)N3CC[C@H](N4CCCC4=O)C3)cn2)CCCCC1 [Example 2.4] |
| 7.3 |  | CN(C(=O)C1CC1)[C@H]1CCN(C(=O)c2ccc(NC3(C)CCOCC3)nc2)C1 [Example 2.5] |
| 0.4 | 9.2 | CN(C(=O)C1CC1)[C@H]1CCN(C(=O)c2ccc(NC34CC(C3)C4)nc2)C1 [Example 2.6] |
| 0.2 | 1.6 | CC(=O)N(C)[C@H]1CCN(C(=O)c2ccc(NC(C)(C)CCO)nc2)C1 [Example 3.1, N-[(3S)-1-{6-[(4-Hydroxy-2-methylbutan-2-yl)amino]pyridine-3-carbonyl}pyrrolidin-3-yl]-N-methylacetamide] |
| 0.2 | 3.1 | CCC(C)(C)Nc1ccc(C(=O)N2CC[C@H](N(C)C(C)=O)C2)cn1 [Example 3.2] |
| 0.4 | 8.7 | CC(=O)N(C)[C@H]1CCN(C(=O)c2ccc(NC(C)(C)Cc3ccc(F)cc3)nc2)C1 [Example 3.3] |
| 2.1 |  | CC(=O)N(C)[C@H]1CCN(C(=O)c2ccc(NC(C)(C)CCn3cncn3)nc2)C1 [Example 3.4] |
| 0.3 | 3.2 | CN(C(=O)N1CCOCC1)[C@H]1CCN(C(=O)c2ccc(NC(C)(C)C)nc2)C1 [Example 4.1, N-[(3S)-1-[6-(tert-Butylamino)pyridine-3-carbonyl]pyrrolidin-3-yl]-N-methylmorpholine-4-carboxamide] |
| 1.2 |  | CN1CCN(C(=O)N(C)[C@H]2CCN(C(=O)c3ccc(NC(C)(C)C)nc3)C2)CC1 [Example 4.2] |
| 0.5 | 3.2 | CC(=O)N(C)[C@H]1CCN(C(=O)c2ccc(NC(C)(C)C)nc2)C1 [Example 5.1, N-[(3S)-1-[6-(tert-Butylamino)pyridine-3-carbonyl]pyrrolidin-3-yl]-N-methylacetamide] |
|  | 267 | CC(=O)N(C)[C@@H]1CCN(C(=O)c2ccc(NC(C)(C)C)nc2)C1 [Example 5.2] |
| 1.6 |  | CC1CN([C@H]2CCN(C(=O)c3ccc(NC(C)(C)C)nc3)C2)C(=O)O1 (stereo partly drawn) [Example 6, 3-[(3S)-1-[6-(tert-Butylamino)pyridine-3-carbonyl]pyrrolidin-3-yl]-5-methyl-1,3-oxazolidin-2-one] |
| 0.3 | 2.7 | CC(C)(C)Nc1ccc(C(=O)N2CC(C)(c3ccccn3)C2)cn1 [Example 8, N-tert-Butyl-5-[3-methyl-3-(pyridin-2-yl)azetidine-1-carbonyl]pyridin-2-amine] |
